# Experimental data taken from patent US8664257B2, “Oxygen-substituted 3-heteroaroylamino-propionic acid derivatives and their use as pharmaceuticals” (Sanofi, priority 2010, dated 2014).
# Biological target: T1, Recombinant human cathepsin A (Homo sapiens, UniProt P10619)
# T1 construct: Recombinant human cathepsin A (residues 29-480, with a C-terminal 10-His tag); 10-His (C); purchased R&D Systems 1049-SE
# T1 sequence (P10619 29-312 limits assumed): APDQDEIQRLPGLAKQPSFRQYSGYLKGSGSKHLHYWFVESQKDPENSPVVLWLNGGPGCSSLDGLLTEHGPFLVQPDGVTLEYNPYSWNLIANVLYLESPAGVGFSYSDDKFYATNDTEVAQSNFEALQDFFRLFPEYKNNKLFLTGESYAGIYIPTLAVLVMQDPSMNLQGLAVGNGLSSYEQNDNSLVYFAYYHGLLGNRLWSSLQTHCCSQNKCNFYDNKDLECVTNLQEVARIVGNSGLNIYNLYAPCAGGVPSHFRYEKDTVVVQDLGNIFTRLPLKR
# T1 sequence (P10619 327-480 limits assumed): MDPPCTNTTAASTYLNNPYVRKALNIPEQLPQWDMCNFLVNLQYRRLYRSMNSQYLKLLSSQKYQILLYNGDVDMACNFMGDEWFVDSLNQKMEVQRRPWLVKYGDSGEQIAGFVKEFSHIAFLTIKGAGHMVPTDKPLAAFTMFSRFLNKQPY
# Test: Cathepsin A inhibitory activity
# Format: biochemical
# Settings: pharmacological test "Cathepsin A inhibitory activity"; IC50 given as class A/B/C; read-out: Activity (2): Cathepsin A inhibitory activity, IC50 class
# How it was run: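 Read-out was microfluidic separation of cleaved vs. uncleaved Bodipy FL-bradykinin (2 μM), giving turnover, % inhibition and IC50. Compound and 833 ng/ml enzyme met for 15 min RT in pH 5.5 MES/DTT before substrate (15 min RT). The 29-480 His-tagged human enzyme was first activated by cathepsin L, then E-64 (10 μM).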
row,Compound,IC50
1,O=C(O)C[C@H](NC(=O)c1cc(O)n(-c2ccccc2F)n1)c1cccc(C(F)(F)F)c1 [Example 241],100 to 1000 nM
2,O=C(O)CC(NC(=O)c1cc(O)n(-c2ccccc2F)n1)c1ccc(-c2cccc(F)c2)cc1 (stereo not shown) [Example 242],100 to 1000 nM
3,O=C(O)CC(NC(=O)c1cc(O)n(-c2ccccc2F)n1)c1ccc(Cl)cc1F (stereo not shown) [Example 243],100 to 1000 nM
4,O=C(O)CC(NC(=O)c1cc(O)n(-c2ccccc2F)n1)c1cccc(Cl)c1F (stereo not shown) [Example 244],100 to 1000 nM
5,O=C(O)CC(NC(=O)c1cc(O)n(-c2ccccc2F)n1)c1cccc(C(F)(F)F)c1Cl (stereo not shown) [Example 245],100 to 1000 nM
6,O=C(O)CC(NC(=O)c1cc(O)n(-c2ccccc2F)n1)c1cccc(Oc2ccc(Cl)cc2)c1 (stereo not shown) [Example 246],100 to 1000 nM
7,Cc1ccc(C(CC(=O)O)NC(=O)c2cc(O)n(-c3ccccc3F)n2)c(C)c1 (stereo not shown) [Example 247],100 to 1000 nM
8,Cc1cc(F)ccc1C(CC(=O)O)NC(=O)c1cc(O)n(-c2ccccc2F)n1 (stereo not shown) [Example 248],100 to 1000 nM
9,O=C(O)CC(NC(=O)c1cc(O)n(-c2cccc(Cl)c2)n1)c1cccc2c1OCO2 (stereo not shown) [Example 249],100 to 1000 nM
10,COc1ccc(C(CC(=O)O)NC(=O)c2cc(O)n(-c3cccc(Cl)c3)n2)c(C)c1 (stereo not shown) [Example 250],100 to 1000 nM
11,O=C(O)C[C@H](NC(=O)c1cc(O)n(-c2cccc(Cl)c2)n1)c1ccccc1Br [Example 251],100 to 1000 nM
12,N#Cc1cccc([C@H](CC(=O)O)NC(=O)c2cc(O)n(-c3cccc(Cl)c3)n2)c1 [Example 252],1000 to 30000 nM
13,COc1ccccc1[C@H](CC(=O)O)NC(=O)c1cc(O)n(-c2cccc(Cl)c2)n1 [Example 253],100 to 1000 nM
14,O=C(O)CC(NC(=O)c1cc(O)n(-c2cccc(Cl)c2)n1)c1ccccc1F (stereo not shown) [Example 254],100 to 1000 nM
15,COc1ccc(Cl)cc1C(CC(=O)O)NC(=O)c1cc(O)n(-c2cccc(Cl)c2)n1 (stereo not shown) [Example 255],100 to 1000 nM
16,O=C(O)C[C@H](NC(=O)c1cc(O)n(-c2cccc(Cl)c2)n1)c1ccc(C(F)(F)F)cc1 [Example 256],1000 to 30000 nM
17,O=C(O)CC(NC(=O)c1cc(O)n(-c2cccc(Cl)c2)n1)c1cccc(Cl)c1Cl (stereo not shown) [Example 257],100 to 1000 nM
18,Cc1cccc([C@H](CC(=O)O)NC(=O)c2cc(O)n(-c3cccc(Cl)c3)n2)c1 [Example 258],100 to 1000 nM
19,O=C(O)C[C@H](NC(=O)c1cc(O)n(-c2cccc(Cl)c2)n1)c1cccc(C(F)(F)F)c1 [Example 259],1000 to 30000 nM
20,O=C(O)CC(NC(=O)c1cc(O)n(-c2cccc(Cl)c2)n1)c1ccc(-c2cccc(F)c2)cc1 (stereo not shown) [Example 260],1000 to 30000 nM
21,Cc1cccc(C(CC(=O)O)NC(=O)c2cc(O)n(-c3cccc(Cl)c3)n2)c1C (stereo not shown) [Example 261],100 to 1000 nM
22,O=C(O)CC(NC(=O)c1cc(O)n(-c2cccc(Cl)c2)n1)c1cccc(Cl)c1F (stereo not shown) [Example 262],100 to 1000 nM
23,O=C(O)CC(NC(=O)c1cc(O)n(-c2cccc(Cl)c2)n1)c1cccc(C(F)(F)F)c1Cl (stereo not shown) [Example 263],100 to 1000 nM
24,CCc1ccc(C(CC(=O)O)NC(=O)c2cc(O)n(-c3cccc(Cl)c3)n2)cc1 (stereo not shown) [Example 264],100 to 1000 nM
25,O=C(O)C[C@H](NC(=O)c1cc(O)n(-c2cccc(Cl)c2)n1)c1c(F)cccc1F [Example 265],100 to 1000 nM
26,O=C(O)C[C@H](NC(=O)c1cc(O)n(-c2cccc(Cl)c2)n1)c1ccc(Cl)cc1Cl [Example 266],100 to 1000 nM
27,O=C(O)CC(NC(=O)c1cc(O)n(-c2cccc(Cl)c2)n1)c1ccc(-c2ccc(F)cc2)cc1 (stereo not shown) [Example 267],1000 to 30000 nM
28,O=C(O)C[C@H](NC(=O)c1cc(O)n(-c2cccc(Cl)c2)n1)c1cccnc1 [Example 268],1000 to 30000 nM
29,COc1ccc([C@H](CC(=O)O)NC(=O)c2cc(O)n(-c3cccc(Cl)c3)n2)cn1 [Example 269],1000 to 30000 nM
30,O=C(O)C[C@H](NC(=O)c1cc(O)n(-c2ccc(Cl)cc2)n1)c1ccccc1Br [Example 270],100 to 1000 nM

# Same assay, conditions: read-out: Activity (2): Cathepsin A inhibitory activity, IC50 class
row,Compound,IC50
1,N#Cc1cccc([C@H](CC(=O)O)NC(=O)c2cc(O)n(-c3ccc(Cl)cc3)n2)c1 [Example 271],1000 to 30000 nM
2,N#Cc1ccc([C@H](CC(=O)O)NC(=O)c2cc(O)n(-c3ccc(Cl)cc3)n2)cc1 [Example 272],1000 to 30000 nM
3,COc1ccc(C(CC(=O)O)NC(=O)c2cc(O)n(-c3ccc(Cl)cc3)n2)c(OC)c1 (stereo not shown) [Example 273],1000 to 30000 nM
4,COc1ccccc1[C@H](CC(=O)O)NC(=O)c1cc(O)n(-c2ccc(Cl)cc2)n1 [Example 274],1000 to 30000 nM
5,COc1ccc(Cl)cc1C(CC(=O)O)NC(=O)c1cc(O)n(-c2ccc(Cl)cc2)n1 (stereo not shown) [Example 275],1000 to 30000 nM
6,O=C(O)C[C@H](NC(=O)c1cc(O)n(-c2ccc(Cl)cc2)n1)c1ccc(F)cc1 [Example 276],1000 to 30000 nM
7,O=C(O)C[C@H](NC(=O)c1cc(O)n(-c2ccc(Cl)cc2)n1)c1cccc(Cl)c1Cl [Example 277],100 to 1000 nM
8,COc1cccc([C@H](CC(=O)O)NC(=O)c2cc(O)n(-c3ccc(Cl)cc3)n2)c1 [Example 278],1000 to 30000 nM
9,O=C(O)C[C@H](NC(=O)c1cc(O)n(-c2ccc(Cl)cc2)n1)c1cccc(F)c1 [Example 279],1000 to 30000 nM
10,O=C(O)C[C@H](NC(=O)c1cc(O)n(-c2ccc(Cl)cc2)n1)c1cccc(Cl)c1 [Example 280],1000 to 30000 nM
11,O=C(O)CC(NC(=O)c1cc(O)n(-c2ccc(Cl)cc2)n1)c1cccc(Cl)c1Cl (stereo not shown) [Example 281],100 to 1000 nM
12,COc1ccccc1[C@@H](NC(=O)c1cc(O)n(-c2ccc(Cl)cc2)n1)[C@@H](O)C(=O)O [Example 282],1000 to 30000 nM
13,COc1cccc([C@H](CC(=O)O)NC(=O)c2cc(O)n(-c3ccc(Cl)cc3)n2)c1OC [Example 283],100 to 1000 nM
14,Cc1cccc([C@H](CC(=O)O)NC(=O)c2cc(O)n(-c3ccc(Cl)cc3)n2)c1 [Example 284],100 to 1000 nM
15,O=C(O)C[C@H](NC(=O)c1cc(O)n(-c2ccc(Cl)cc2)n1)c1cccc(C(F)(F)F)c1 [Example 285],1000 to 30000 nM
16,O=C(O)CC(NC(=O)c1cc(O)n(-c2ccc(Cl)cc2)n1)c1ccc(Cl)cc1F (stereo not shown) [Example 286],1000 to 30000 nM
17,Cc1cccc(C(CC(=O)O)NC(=O)c2cc(O)n(-c3ccc(Cl)cc3)n2)c1C (stereo not shown) [Example 287],100 to 1000 nM
18,O=C(O)CC(NC(=O)c1cc(O)n(-c2ccc(Cl)cc2)n1)c1cccc(Cl)c1F (stereo not shown) [Example 288],1000 to 30000 nM
19,O=C(O)CC(NC(=O)c1cc(O)n(-c2ccc(Cl)cc2)n1)c1cccc(C(F)(F)F)c1Cl (stereo not shown) [Example 289],100 to 1000 nM
20,O=C(O)CC(NC(=O)c1cc(O)n(-c2ccc(Cl)cc2)n1)c1cccc(Oc2ccc(Cl)cc2)c1 (stereo not shown) [Example 290],1000 to 30000 nM

row,Compound,IC50
1,Cc1ccc(C(CC(=O)O)NC(=O)c2cc(O)n(-c3ccc(Cl)cc3)n2)c(C)c1 (stereo not shown) [Example 291],100 to 1000 nM
2,Cc1cc(F)ccc1C(CC(=O)O)NC(=O)c1cc(O)n(-c2ccc(Cl)cc2)n1 (stereo not shown) [Example 292],100 to 1000 nM
3,O=C(O)C[C@H](NC(=O)c1cc(O)n(-c2ccc(Cl)cc2)n1)c1ccccc1F [Example 293],1000 to 30000 nM
4,O=C(O)CC(NC(=O)c1cc(O)n(-c2ccc(Cl)cc2)n1)c1ccc(Oc2ccccc2)cc1 (stereo not shown) [Example 294],1000 to 30000 nM
5,O=C(O)C[C@H](NC(=O)c1cc(O)n(-c2ccc(Cl)cc2)n1)c1c(F)cccc1F [Example 295],1000 to 30000 nM
6,O=C(O)C[C@H](NC(=O)c1cc(O)n(-c2ccc(Cl)cc2)n1)c1ccc(Cl)cc1 [Example 296],100 to 1000 nM
7,O=C(O)C[C@H](NC(=O)c1cc(O)n(-c2ccc(Cl)cc2)n1)c1ccc(Cl)cc1Cl [Example 297],100 to 1000 nM
8,O=C(O)C[C@H](NC(=O)c1cc(O)n(-c2ccc(Cl)cc2)n1)c1cccnc1 [Example 298],1000 to 30000 nM
9,COc1ccc([C@H](CC(=O)O)NC(=O)c2cc(O)n(-c3ccc(Cl)cc3)n2)cn1 [Example 299],1000 to 30000 nM
10,O=C(O)CC(NC(=O)c1cc(O)n(-c2cccc(F)c2)n1)c1cccc2c1OCO2 (stereo not shown) [Example 300],100 to 1000 nM
11,O=C(O)CC(NC(=O)c1cc(O)n(-c2cccc(F)c2)n1)c1cccc(Cl)c1 (stereo not shown) [Example 301],100 to 1000 nM
12,O=C(O)C[C@H](NC(=O)c1cc(O)n(-c2cccc(F)c2)n1)c1ccccc1Br [Example 302],100 to 1000 nM
13,N#Cc1cccc([C@H](CC(=O)O)NC(=O)c2cc(O)n(-c3cccc(F)c3)n2)c1 [Example 303],1000 to 30000 nM
14,O=C(O)CC(NC(=O)c1cc(O)n(-c2cccc(F)c2)n1)c1cccc(C(F)(F)F)c1 (stereo not shown) [Example 304],100 to 1000 nM
15,N#Cc1ccc([C@H](CC(=O)O)NC(=O)c2cc(O)n(-c3cccc(F)c3)n2)cc1 [Example 305],100 to 1000 nM
16,COc1ccc(C(CC(=O)O)NC(=O)c2cc(O)n(-c3cccc(F)c3)n2)c(OC)c1 (stereo not shown) [Example 306],100 to 1000 nM
17,COc1ccccc1[C@H](CC(=O)O)NC(=O)c1cc(O)n(-c2cccc(F)c2)n1 [Example 307],100 to 1000 nM
18,O=C(O)CC(NC(=O)c1cc(O)n(-c2cccc(F)c2)n1)c1ccccc1F (stereo not shown) [Example 308],100 to 1000 nM
19,COc1ccc(Cl)cc1C(CC(=O)O)NC(=O)c1cc(O)n(-c2cccc(F)c2)n1 (stereo not shown) [Example 309],100 to 1000 nM
20,COc1ccc(C(CC(=O)O)NC(=O)c2cc(O)n(-c3cccc(F)c3)n2)c(Cl)c1 (stereo not shown) [Example 310],100 to 1000 nM
